From PubChem BioAssay AID1745844 (Carcinogenic Potency Database (CPDB), 2022)
Activity calls are given as the source filed them. The rule behind the calls is not given here.

Test system: rodent lifetime carcinogenesis bioassay, tumor incidence TD50
Experiment: chronic cancer bioassays in animals – CPDB, compiled studies (AID 1745844)

CC1CCC(C(C)C)C(O)C1 (configuration not stated)
carcinogen call (mouse, strain B6C3F1, females, in feed, site: any site (literature study), lesion: several types, types named in the paper, dosed 103 weeks, study length 104 weeks): negative (inactive)
TD50 (mouse, strain B6C3F1, females, in feed, site: liver, lesion: hepatocellular adenoma + hepatocellular carcinoma + neoplastic nodule, dosed 103 weeks, study length 104 weeks): 5190 mg/kg/day
TD50 (mouse, strain B6C3F1, females, in feed, site: lung, lesion: alveolar/bronchiolar adenoma + alveolar/bronchiolar carcinoma, dosed 103 weeks, study length 104 weeks): 3170 mg/kg/day
TD50 (mouse, strain B6C3F1, males, in feed, site: any site (literature study), lesion: several types, types named in the paper, dosed 103 weeks, study length 104 weeks): 2750 mg/kg/day (inactive)
TD50 (mouse, strain B6C3F1, males, in feed, site: liver, lesion: hepatocellular adenoma + hepatocellular carcinoma + neoplastic nodule, dosed 103 weeks, study length 104 weeks): 1960 mg/kg/day
carcinogen call (rat, strain Fischer 344, females, in feed, site: any site (literature study), lesion: several types, types named in the paper, dosed 103 weeks, study length 105 weeks): negative (inactive)
TD50 (rat, strain Fischer 344, males, in feed, site: any site (literature study), lesion: several types, types named in the paper, dosed 103 weeks, study length 105 weeks): 1410 mg/kg/day (inactive)
TD50 (rat, strain Fischer 344, males, in feed, site: liver, lesion: hepatocellular adenoma + hepatocellular carcinoma + neoplastic nodule, dosed 103 weeks, study length 105 weeks): 5690 mg/kg/day

CN(C#N)N=O
TD50 (rat, strain Sprague-Dawley, females, in drinking water, site: forestomach, lesion: carcinoma, dosed 60 weeks, study length 95 weeks): 1.17 mg/kg/day
TD50 (rat, strain Sprague-Dawley, females, in drinking water, site: forestomach, lesion: several types, types named in the paper, dosed 60 weeks, study length 95 weeks): 0.48 mg/kg/day

CCCC1O[C@@H]2C[C@H]3[C@@H]4CCC5=CC(=O)C=C[C@]5(C)[C@H]4[C@@H](O)C[C@]3(C)[C@]2(C(=O)CO)O1 (some centres not stated)
TD50 (rat, strain Charles River CD (Sprague-Dawley), males, in drinking water, site: liver, lesion: hepatocellular adenoma, dosed 104 weeks, study length 104 weeks): 0.491 mg/kg/day
TD50 (rat, strain Charles River CD (Sprague-Dawley), males, in drinking water, site: liver, lesion: hepatocellular carcinoma, dosed 104 weeks, study length 104 weeks): 0.822 mg/kg/day
TD50 (rat, strain Charles River CD (Sprague-Dawley), males, in drinking water, site: liver, lesion: several types, types named in the paper, dosed 104 weeks, study length 104 weeks): 0.291 mg/kg/day

CCCCN(N)C=O
TD50 (mouse, strain Swiss albino, females, in drinking water, site: clitoral gland, lesion: several types, types named in the paper, dosed 92 weeks, study length 92 weeks): 252 mg/kg/day
TD50 (mouse, strain Swiss albino, females, in drinking water, site: clitoral gland, lesion: squamous-cell carcinoma, dosed 92 weeks, study length 92 weeks): 321 mg/kg/day
TD50 (mouse, strain Swiss albino, females, in drinking water, site: lung, lesion: several types, types named in the paper, dosed 92 weeks, study length 92 weeks): 19.4 mg/kg/day
carcinogen call (mouse, strain Swiss albino, males, in drinking water, site: liver, lesion: angioma, dosed 90 weeks, study length 90 weeks): negative (inactive)
TD50 (mouse, strain Swiss albino, males, in drinking water, site: lung, lesion: several types, types named in the paper, dosed 90 weeks, study length 90 weeks): 19.2 mg/kg/day
TD50 (mouse, strain Swiss albino, males, in drinking water, site: preputial gland, lesion: angiosarcoma, dosed 90 weeks, study length 90 weeks): 519 mg/kg/day
TD50 (mouse, strain Swiss albino, males, in drinking water, site: preputial gland, lesion: fibrosarcoma, dosed 90 weeks, study length 90 weeks): 304 mg/kg/day
TD50 (mouse, strain Swiss albino, males, in drinking water, site: preputial gland, lesion: several types, types named in the paper, dosed 90 weeks, study length 90 weeks): 28.2 mg/kg/day
TD50 (mouse, strain Swiss albino, males, in drinking water, site: preputial gland, lesion: squamous-cell carcinoma, dosed 90 weeks, study length 90 weeks): 35.6 mg/kg/day

OCC(O)CCl (configuration not stated)
carcinogen call (rat, strain Charles River CD (Sprague-Dawley), females, by gavage, site: parathyroid, lesion: adenoma, dosed 72 weeks, study length 104 weeks): negative (inactive)
TD50 (rat, strain Charles River CD (Sprague-Dawley), males, by gavage, site: parathyroid, lesion: adenoma, dosed 72 weeks, study length 104 weeks): 116 mg/kg/day

CC(Oc1cc(Cl)ccc1Cl)C(=O)O (configuration not stated)
carcinogen call (mouse, strain B6AKF1, females, oral dosing, site: any site (literature study), lesion: several types, types named in the paper, dosed 76 weeks, study length 76 weeks): negative (inactive)
carcinogen call (mouse, strain B6AKF1, females, oral dosing, site: liver, lesion: hepatoma, dosed 76 weeks, study length 76 weeks): negative (inactive)
carcinogen call (mouse, strain B6AKF1, females, oral dosing, site: lung, lesion: adenoma, dosed 76 weeks, study length 76 weeks): negative (inactive)
carcinogen call (mouse, strain B6AKF1, males, oral dosing, site: any site (literature study), lesion: several types, types named in the paper, dosed 76 weeks, study length 76 weeks): negative (inactive)
carcinogen call (mouse, strain B6AKF1, males, oral dosing, site: liver, lesion: hepatoma, dosed 76 weeks, study length 76 weeks): negative (inactive)
carcinogen call (mouse, strain B6AKF1, males, oral dosing, site: lung, lesion: adenoma, dosed 76 weeks, study length 76 weeks): negative (inactive)
carcinogen call (mouse, strain B6C3F1, females, oral dosing, site: any site (literature study), lesion: one or several types, types not named, dosed 76 weeks, study length 76 weeks): negative (inactive)
carcinogen call (mouse, strain B6C3F1, females, oral dosing, site: liver, lesion: hepatoma, dosed 76 weeks, study length 76 weeks): negative (inactive)
carcinogen call (mouse, strain B6C3F1, females, oral dosing, site: lung, lesion: several types, types named in the paper, dosed 76 weeks, study length 76 weeks): negative (inactive)
TD50 (mouse, strain B6C3F1, males, oral dosing, site: any site (literature study), lesion: several types, types named in the paper, dosed 76 weeks, study length 76 weeks): 10.5 mg/kg/day (inactive)
TD50 (mouse, strain B6C3F1, males, oral dosing, site: liver, lesion: hepatoma, dosed 76 weeks, study length 76 weeks): 36.7 mg/kg/day (inactive)
TD50 (mouse, strain B6C3F1, males, oral dosing, site: lung, lesion: adenoma, dosed 76 weeks, study length 76 weeks): 36.7 mg/kg/day (inactive)

CCCCN(N=O)C(=N)N[N+](=O)[O-]
carcinogen call (rat, strain Wistar, males, in drinking water, site: stomach, glandular, lesion: one or several types, types not named, dosed 52 weeks, study length 78 weeks): negative (inactive)
